Results as given in patent US7776859B2, “Hexahydroimidazopyrazin-3-one compounds useful as modulators of androgen receptor function” (Bristol-Myers Squibb Company, priority 2005, dated 2010).

How the values were obtained:
[1] = target: T1, AR (Rattus norvegicus, UniProt P15207)
T1 sequence (P15207 1-902): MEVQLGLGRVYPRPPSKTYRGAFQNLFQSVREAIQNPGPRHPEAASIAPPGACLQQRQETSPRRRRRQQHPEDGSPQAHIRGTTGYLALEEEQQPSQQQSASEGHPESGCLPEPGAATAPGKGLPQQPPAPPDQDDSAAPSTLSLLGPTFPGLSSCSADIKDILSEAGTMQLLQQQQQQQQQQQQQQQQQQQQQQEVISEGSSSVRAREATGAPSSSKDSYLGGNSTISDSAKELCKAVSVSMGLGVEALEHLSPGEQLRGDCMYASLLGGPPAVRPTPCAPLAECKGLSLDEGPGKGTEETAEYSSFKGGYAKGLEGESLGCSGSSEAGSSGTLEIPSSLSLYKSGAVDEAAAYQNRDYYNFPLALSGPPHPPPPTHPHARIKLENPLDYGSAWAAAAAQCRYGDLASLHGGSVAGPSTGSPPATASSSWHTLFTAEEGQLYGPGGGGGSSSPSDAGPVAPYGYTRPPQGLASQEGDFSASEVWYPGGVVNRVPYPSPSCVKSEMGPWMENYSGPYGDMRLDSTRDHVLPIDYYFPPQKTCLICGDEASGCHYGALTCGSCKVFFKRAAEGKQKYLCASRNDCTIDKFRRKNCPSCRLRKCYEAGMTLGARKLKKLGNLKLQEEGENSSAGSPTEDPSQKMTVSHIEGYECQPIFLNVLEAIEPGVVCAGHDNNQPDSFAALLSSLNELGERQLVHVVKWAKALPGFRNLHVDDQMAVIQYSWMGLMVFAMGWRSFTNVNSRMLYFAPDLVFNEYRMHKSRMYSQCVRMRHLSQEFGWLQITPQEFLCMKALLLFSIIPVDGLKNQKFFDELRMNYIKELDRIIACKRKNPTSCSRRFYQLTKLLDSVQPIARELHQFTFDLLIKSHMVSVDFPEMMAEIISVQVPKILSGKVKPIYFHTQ

[2] = tested on: wild type AR (MDA 453 cells); conditions: read-out: Kd for [3H]-DHT; MDA 453 cells (wild type AR), Scatchard analysis of specific binding
Experimental: For the saturation analysis, the difference between the total binding and the non-specific binding, is defined as specific binding.
Two replicates are used for each sample. After 4 hours at 37° C., cells are washed, harvested, and counted as described above. […] The K1 values are determined by application of the Cheng-Prusoff equation to the IC50 values, where:
[formula] After correcting for non-specific binding, IC50 values are determined.

Molecule | potency relative to free T ([1]; TP versus free T, organ weight increase) | EC50 (increase in organ weight, VP and SV) ([1]; immature castrated rats, dosed for 3 days) | Kd [2]
CCC(=O)O[C@H]1CC[C@H]2[C@@H]3CCC4=CC(=O)CC[C@]4(C)[C@H]3CC[C@]12C [TP, testosterone propionate] | 10-30 fold | ~0.03 mg | –
tritiated dihydrotestosterone [[^3H]-DHT] | – | – | 0.7 nM
